Assay results taken from PMC9531438, “Preclinical development of carrier-free prodrug nanoparticles for enhanced antitumor therapeutic potential with less toxicity” (Journal of Nanobiotechnology, 2022).
Like-named read-outs stand apart in the source and are kept apart here. One block for each compound: values may come before it. Where a SMILES comes first, the peptide text is derived from it. The star is where a group is joined. Doxorubicin(3'-N) = COc1cccc2c1C(=O)c1c(O)c3c(c(O)c1C2=O)C[C@@](O)(C(=O)CO)C[C@@H]3O[C@H]1C[C@H](N*)[C@H](O)[C@H](C)O1

Experiments:
[1] = test system: H9C2 cells; assay: CCK-8 cytotoxicity; type: cell-based, rat; conditions: 48 h treatment, normal cardiomyocytes
Experimental: (§1) The cytotoxicity of F68-FDOX was assessed via a cell counting kit-8 (CCK-8) assays. First, 1 × 10^5 HT29, MDA-MB231, KPC960 or H9C2 cells were seeded into 96-well cell culture plates. […] Finally, cell viability was measured by a microplate reader (VERSAmaxTM; Molecular Devices Corp., USA) with 450 nm of wavelength.

[2] = test system: HT29 tumor-bearing mice; assay: Pharmacodynamics, histological analysis of organs and tumor tissues (CLSM); type: in vivo; conditions: i.v. 4 mg/kg based on DOX, 9 h after injection
Experimental: (§2) The 6-week male BALB/c and BALB/c nu/nu mice were purchased from NaraBio (Gyeonggi-do, Republic of Korea). Mice were bred under pathogen-free conditions in the Korea Institute of Science and Technology (KIST). All experiments with animals were performed in compliance with the relevant laws and institutional guidelines of Institutional Animal Care and Use Committee (IACUC; approved number of 2020-123) in Korea Institute of Science and Technology (KIST). […] After treatment, blood samples were collected from mice by cardiac puncture after deep anesthesia at pre-determined times, followed by analysis with HPLC with fluorescence detector. The PK parameters including area under the curves (AUC), clearance (CL), volume of distribution (Vd) and half-life (t1/2) were calculated using a WinNonlin software. […] The fluorescence intensities in the tumor regions were quantified using a Living Image software (PerkinElmer, Waltham, MA, USA). The ex vivo NIRF imaging of collected major organs after 9 h of injection was also performed using IVIS Lumina Series III system. […] For this analysis, each tissue was cut into 8-μm sections using rotary microtome and analyzed via confocal laser scanning microscope (CLSM) equipped with 405 diode (405 nm) and HeNe-Red (633 nm) lasers.

[3] = test system: KPC960 cells; assay: CCK-8 cytotoxicity; type: cell-based, human; conditions: 48 h treatment
Experimental: as §1

[4] = test system: colon (HT29) tumor tissues; assay: Annexin V staining of single tumor cells (flow cytometry); type: in vivo, mice; conditions: day 9 after treatment, mean
Experimental: (§3) The antitumor activity was evaluated in colon, breast and pancreatic cancer models, which were prepared by subcutaneous injection with 1 × 10^7 HT29, MDA-MB231 or KPC960 cells, respectively. […] The mice were treated once every three days, and tumor volumes were calculated as the largest diameter × smallest diameter^2 × 0.53, every 2 days. The mice with a tumor size of 2000 mm^3 or higher were counted as dead. To analyze the antitumor activity in a single cell level, the tumor tissues were collected on day 9, and single cell were isolated from the tumor tissues using a Tumor Dissociation Kit. After cell counting, single cells were stained with Annexin V for 1 h in room temperature and analyzed via flow cytometer.

[5] = test system: BALB/c mice; assay: Toxicity study after single-dosage
Experimental: (§4) The safety of F68-FDOX treatment was assessed by histological and hematological analyses. Briefly, DOX (4 mg/kg), FRRG-DOX (4 mg/kg based on DOX contents) or F68-FDOX (4 mg/kg based on DOX contents) were intravenously injected into BALB/c mice. On day 9 after treatments, major organs were collected from mice, and structural abnormalities and apoptosis in organ tissues were assessed by staining with H&E or TUNEL, respectively. In case of hematological analyses, blood samples were collected from mice on day 9. For the complete blood count (CBC) analyses, each blood sample was mixed with EDTA, and a portion of blood sample was centrifuged at 2100 rpm for 20 min to obtain blood plasma. The following factors in blood samples were measured; albumin/globulin ratio (A/G), troponin-I, albumin (Alb), total protein (TP), alanine aminotransferase (ALT), total cholesterol (T-Chol), blood urea nitrogen (BUN), alkaline phosphatase (ALP), red blood cell (RBC), white blood cell (WBC), mean corpuscular hemoglobin (MCH), mean corpuscular volume (MCV), hematocrit (HCT), hemoglobin (HGB) and platelet (PLT). To assess the safety of F68-FDOX treatment after multiple-dosage, DOX (4 mg/kg), FRRG-DOX (4 mg/kg based on DOX contents) or F68-FDOX (4 mg/kg based on DOX contents) were injected into mice once every three days. Then, histological and hematological analyses were performed as described above.

[6] = test system: HT29 tumor; assay: Antitumor activity, colon tumor model; type: in vivo
Experimental: as §3

[7] = test system: BALB/c mice; assay: Toxicity study after multi-dosage; type: in vivo
Experimental: as §4

[8] = test system: mice; conditions: 5 mg/kg free DOX two times (Total 10 mg/kg); ref [42]; cited from earlier work
Experimental: […] […] Even though same dose of equal drugs was administered into the mice, the outcomes can be varied according to the not only the number and intervals of the administration, but also different reactivity by species, feeding environment and age of the ...

[9] = Pharmacokinetics after intravenous injection; type: in vivo, mice
Experimental: as §2

[10] = test system: HT29 tumor-bearing mice; conditions: mouse, in vivo, iv, 4 mg/kg
Experimental: as §2

[11] = type: in vitro ADME, mouse
Text: The carrier-free doxorubicin (DOX) prodrug nanoparticles were designed as an alternative formulation to overcome several problems of conventional nano-sized drug delivery system in the terms of technical- and industrial-aspects. […] This absolutely simplified one-step synthesis protocol allowed 100 g batch of preparation as described in “Methods” section. […] In addition, their precise and concise structure allow easy quality control (QC) after synthesis; thus, we could verify the successful preparation of FRRG-DOX by confirming chemical structure, exact mass and purity via ^1H NMR, MALDI-TOF (calculated mass: 1102.17 Da, measured mass: 1102.595 m/z) and HPLC (99%), respectively (Additional file 1: Fig. S2). Importantly, FRRG-DOX molecules self-assembled into prodrug nanoparticles by its intermolecular π-π stacking hydrophobic interactions without any additional carrier materials, resulting in high drug loading (> 50%). […] This was clearly supported by MALDI-TOF measurement, wherein the molecular weights of G-DOX (calculated mass: 600.58 Da, measured mass: 656.4 m/z [M + Li] and 657.4 m/z [M + Li + H]) were confirmed at the newly appeared peak (13 min) in the HPLC spectrum after incubation of F68-FDOX with cathepsin B (Additional file 1: Fig. S6). […]

[12] = type: physicochemical
Experimental: Finally, we developed F68-FDOX as a lyophilized powder form and evaluated the long-term storage stability of lyophilized F68-FDOX powder stored for 3, 6, 12 months in the low (− 4 °C), room (37 °C) or accelerated (60 °C) condition; for these studies, size distribution, chemical structure and purity were analyzed after reconstitution of lyophilized powder stored at each condition (Additional file 1: Fig. S7–S9). […] Taken together, the manufacturing operation for mass production of F68-FDOX was optimized for preclinical development, and their physicochemical characterization, such as size distribution, particle stability, target enzyme-specificity, and even the long-term storage stability was successfully evaluated in vitro.
To prepare carrier-free prodrug nanoparticles, the cancer-specific prodrug was simply synthesized by conjugating cathepsin B-specific cleavable tetrapeptide (Phe-Arg-Arg-Gly; FRRG) to DOX via one-step reaction. […] The FRRG-DOX was purified using Sep-Pak C18 column chromatography and the resulting filtrate was analyzed via RP-HPLC (Agilent 1200 Series HPLC System). […] The long-term storage stability of FRRG-DOX power was assessed after storage of 3, 6, 12 months in the low (− 4 °C), room (37 °C) or accelerated (60 °C) condition, followed by analysis of size, chemical structure and purity as described above. […]

[13] = test system: BALB/c mice; conditions: mouse, in vivo, iv, 10 mg/kg
Experimental: as §4

[14] = BALB/c mice, i.v. 10 mg/kg based on DOX, single dose
[15] = treatment five times with 3 days-intervals
[16] = mice, i.v., 4 mg/kg based on DOX contents, WinNonlin

Compound: COc1cccc2c1C(=O)c1c(O)c3c(c(O)c1C2=O)C[C@@](O)(C(=O)CO)C[C@@H]3O[C@H]1C[C@H](N)[C@H](O)[C@H](C)O1 [DOX, doxorubicin]
IC50 [1]: 13.8 µM
distribution in major organs and tumor tissues (histology) [2]: non-specifically distributed in all the major organs and low tumor accumulation
IC50 [3]: 7.32 µM
percentage of apoptotic (Annexin V-positive) tumor cells [4]: 17.7 ± 1.51%
body weight change, single-dosage [5, 14]: gradually reduced
time within which all mice were dead, single-dosage [5, 14]: ≤ 9 days
complete blood count (CBC) analyses, single-dosage ([5]; day 9, i.v. 10 mg/kg): severe leukopenia, oligocythemia and thrombocytopenia
serological examination (BUN, ALT, troponin-I), single-dosage ([5]; day 9, i.v. 10 mg/kg): severe cardiac, renal and hepatic toxicity
major organ tissues stained with H&E or TUNEL, single-dosage ([5]; day 9, i.v. 10 mg/kg based on DOX): elevated structural abnormalities with apoptosis
colon tumor volume on day 9 after treatment ([6]; HT29 s.c. tumor, i.v. 4 mg/kg based on DOX once every three days): 478.75 ± 49.87 mm^3
time within which all mice were dead (tumor model) ([6]; HT29 tumor-bearing mice, i.v. 4 mg/kg once every three days): ≤ 9 days
histology of liver, spleen and heart tissues, multi-dosage ([7]; day 7, H&E): severe tissue damages
hematological parameters, multi-dosage ([7]; day 7, treatment with 3 days-intervals): remarkably got out from the normal range
body weight change, multi-dosage [7, 15]: severe body weight loss
time within which all mice were dead, multi-dosage [7, 15]: ≤ 7 days
time within which all mice were dead [8]: within two weeks
CL [9, 16]: 3.02 ± 0.638 mL/min/kg
Vd [9, 16]: 0.304 ± 0.0976 L/kg
half-life (t1/2) [9, 16]: 1.33 ± 0.23 h
AUClast ([9]; mice, i.v., 4 mg/kg based on DOX contents, blood, HPLC with fluorescence detector, WinNonlin): 22.18 ± 4.52 µg·h/mL

Compound: COc1cccc2c1C(=O)c1c(O)c3c(c(O)c1C2=O)C[C@@](O)(C(=O)CO)C[C@@H]3O[C@H]1C[C@H](NC(=O)CNC(=O)[C@H](CCCNC(=N)N)NC(=O)[C@H](CCCNC(=N)N)NC(=O)[C@H](Cc2ccccc2)NC(C)=O)[C@H](O)[C@H](C)O1 [FRRG-DOX] (Ac-FRRG-{Doxorubicin(3'-N)})
body weight change, single-dosage [5, 14]: no significant body weight loss
AUCinf ([9]; mouse, in vivo, iv, 4 mg/kg): 407.71 ± 85.81 µg·h/mL
AUClast ([9]; mouse, in vivo, iv, 4 mg/kg): 345.99 ± 68.9 µg·h/mL
CL ([9]; mouse, in vivo, iv, 4 mg/kg): 0.1692 ± 0.0405 mL/min/kg
Vd ([9]; mouse, in vivo, iv, 4 mg/kg): 0.0832 ± 0.03185 L/kg
half-life (t1/2) ([9]; mouse, in vivo, iv, 4 mg/kg): 7.96 ± 4.59 h

fluorescence intensity in tumor tissues relative to FRRG-DOX (NIRF) [10]: 2.42–2.71 fold
time of high stability without significant changes of size and polydispersity index in mouse serum [11]: ≥ 6 days
stability 24 h after reconstitution (size distribution, chemical structure, purity) [12]: no significant changes
AUCinf ([9]; mouse, in vivo, iv, 4 mg/kg): 1367.44 ± 14.35 µg·h/mL
AUClast ([9]; mouse, in vivo, iv, 4 mg/kg): 1281.17 ± 240 µg·h/mL
CL ([9]; mouse, in vivo, iv, 4 mg/kg): 0.0488 ± 0.0005 mL/min/kg
Vd ([9]; mouse, in vivo, iv, 4 mg/kg): 0.1 ± 0.00269 L/kg
time for which a detectable amount remained in the body ([9]; mouse, in vivo, iv, 4 mg/kg): 96 h
all hematological parameters, single-dosage [13]: in normal range
Compound: Phe-Arg-Arg-Gly [F68-FDOX]
histology of liver, spleen and heart tissues, multi-dosage ([7]; mouse, in vivo): without damage to the normal organs
body weight change, single-dosage [13]: no significant body weight loss
major organ tissues stained with H&E or TUNEL, single-dosage [13]: did not induce noticeable tissue damages
